Laboratory results as given in US20260053731A1, “MICRONEEDLE PARTICLES FOR ENHANCED TOPICAL TRANSDERMAL DRUG DELIVERY” (BONSENS AB, priority 2023, published 2026).

Assay: Adverse effects of daily treatment in tumor-bearing mice (weight, skin histology)
Assay type: in vivo, hairless NMRI Nude mice
Protocol: For hematoxylin/eosin staining (H&E), skin was isolated, immediately fixed in PFA (4% paraformaldehyde in PBS) overnight at room temperature, and then transferred to 70% ethanol prior to paraffin embedding and sectioning. Then, skin sections (8 μm) were stained with hematoxylin for 3 min after rehydration, rinsed for 10 min in running tap water and then stained for 1 min in eosin solution before being mounted on Fluoromount (DAKO). Whole slide pictures were taken by Olympus Slide View VS200 at Histological Core facility—HistoCore, Karolinska Institutet, Sweden, processed, and analyzed by OlyVIA software.
The mice were monitored for signs of discomfort (hunched posture, immobility, >10% weight loss) throughout the duration of the experiment as per ethics application.
In vivo experimentation was performed by inducing subcutaneous GTML2 tumors in mice through injecting a Tet-Off transgenic doxycycline-dependent murine cell line 40 into the flanks. […] Mice were monitored daily and were visualized with IVIS under tumor suspicion. […] Tumors were monitored and measured by IVIS imaging and by vernier calliper every week until the end of the experimentation. When measuring using a Vernier calliper, tumor volumes were calculated from the ellipsoid formula: V=4/3 πWLD. […]

For C[C@H]1c2cccc(O)c2C(=O)C2=C(O)[C@]3(O)C(=O)C(C(N)=O)=C(O)[C@@H](N(C)C)[C@@H]3[C@@H](O)[C@@H]21 [Doxycycline, doxycycline], the weight of mice (long term oral doxycycline in drinking water, compared to plain water control group) was “slower increase in their weight” and the weight of mice (topical skin treatment, 11 weeks) was “did not alter the weight of the mice”.
